We go through 26 molecules from patent EP0717040A1, “Thiazine or thiazepine derivatives which inhibit NOS” (Japan Tobacco Inc., priority 1994, dated 1996).

Structures can show the parent of a compound that is named as a salt. Where two headings read alike, the source gives them in different places.

Assay [1] has as its target T1, constitutive NO synthase (cNOS) (Rattus norvegicus, UniProt P29476).
T1 construct: cNOS was extracted from a rat cerebellum; from tissue; host or cells: rat cerebellum
Put plainly: Activity to inhibit constitutive NO synthase (cNOS) derived from rat cerebellum; conversion of [3H]-L-arginine to [3H]-L-citrulline. It is filed as biochemical. As to the method: Activity to inhibit constitutive NO synthase (cNOS) derived from rat cerebellum
The inhibition activity was tested according to a method of P. A. Bush et al. (Biochem, Biophys, Res. Commun., 185, 960-966 (1992)), using [³H]-L-arginine as a substrate and taking the conversion of [³H]-L-arginine to [³H]-L-citrulline as an index of the enzyme activity.
The test was conducted as follows: First, cNOS was extracted from a rat cerebellum with a 50 mM Tris-HCl buffer solution (pH 7.4) which contains 0.1 mM EDTA (ethylenediamine tetraacetate), 0.1 mM EGTA (ethyleneglycol bis(β-aminoethyl ether)-tetraacetate), 0.5 mM DTT (dithiothreitol), 1 µM PMSF (phenylmethylsulfonyl fluoride), 1 µM bestatin A, and 1 µM leupeptin. To the cNOS thus extracted, a 50 mM Tris-HCl buffer solution (pH 7.4) containing 10 µM L-arginine, 10 µM NADPH, 2 mM calcium chloride and calmoduline (0.1 µg), together with a test compound and [³H]-L-arginine were added. The mixture was incubated for 10 minutes at 25°C. The reaction was terminated by adding 20 mM sodium acetate buffer solution (pH 5.5) containing 1 mM L-citrulline, 2 mM EDTA, and 0.2 mM EGTA. The reaction solution was passed through a cation-exchange resin. This eluate was combined with another eluate which was obtained thereafter by eluting with water. To the combined eluate, a liquid scintillation cocktail was further added and its radioactivity (A) was measured. At the same time, the radioactivity (B) with respect to the case where the test compound was not added and the radioactivity (C) with respect to the case where an enzyme fraction was not added, were respectively measured. Then, the rate of cNOS inhibition was calculated in accordance with the following equation. The concentration (IC₅₀), at which the test compound can inhibit 50 % of the enzyme activity, were also calculated. Inhibition rate (%) = {1 - (A - C/B - C)} × 100 [formula]

In assay [2] the target is T2, endothelium nitric oxide synthase (eNOS) (Rattus norvegicus, UniProt Q62600).
T2 construct: from tissue; host or cells: living anesthetized rat
Put plainly: Blood pressure elevating activity in rat by inhibition of eNOS. Conditions: dose to elevate mean blood pressure by 25 mmHg; anesthetized rat, administered via femoral vein. Format: in vivo. Here is the method:
Blood pressure elevating activity in rat by inhibition of endothelium nitric oxide synthase (eNOS) A rat was anesthetized with by peritoneal injection of sodium barbital (300 mg/kg) and catheters were inserted into a femoral artery and a femoral vein. Blood pressure was measured through the catheter inserted in the femoral artery and a test compound was administered through the catheter inserted in the femoral vein. […]

In assay [3] the target is T3, neuronal NOS (nNOS) (Rattus norvegicus, UniProt P29476).
T3 construct: from tissue; host or cells: living rat (brain)
The assay can be described thus: Effect on rat cerebral ischemia model by inhibition of nNOS: reperfusion model. Format: in vivo. To be noted: dose 10 µg/kg intravenously, 10 minutes before occlusion, immediately before and 3 hours after reperfusion; infarct area after 48 hours. The text has this:
Effect on rat cerebral ischemia model by inhibition of neuronal NOS (nNOS): reperfusion model
A rat (weight: 300 g) was fasted overnight and a middle cerebral artery of the rat was occluded and then reperfused to prepare a cerebral ischemia model, according to the method of Koizumi et al. (Jpn. J. Stroke, 8, 1-8 (1986)). More specifically, a rat breathing naturally was immobilized under anesthesia with a laughing gas - oxygen mixed gas and halothane, and then, underwent cervical median dissection. A silicon-coated nylon thread was inserted into an internal carotid artery from a branched portion at which a right external carotid artery and the internal carotid artery is divided, thereby blocking the middle cerebral artery for 1.5 hours. Thereafter, the occluding of the middle cerebral artery was reperfused by removing a thread. After 48 hours, 6 coronal sections were prepared and stained by means of a triphenyltetrazolium chloride method. Non-stained portions were determined as infarct area. The test compound was intravenously injected 10 minutes before the occlusion of middle cerebral artery, immediately before, and 3 hours after reperfusion. The inhibitory effect of each compound was determined.

Assay [4] deals with T4, inducible NO synthase (iNOS) (Rattus norvegicus, UniProt Q06518). The assay can be described thus: Effect on rat-paw carrageenin edema model by inhibition of iNOS. It is filed as in vivo. To be noted: oral, 1 hour prior to carrageenin, paw volume 4 hours after induction. As to the method: Effect on rat-paw carrageenin edema model by inhibition of inducible NO synthase (iNOS)
To a rat's left leg, 1 % carrageenin solution was subcutaneously administered to induce a paw edema. 4 hours after the induction, paw volume was measured. A test compound was orally administered 1 hour prior to the carrageenin administration. The suppression effect of the test compound was determined.
(The carrageenan paw model is a standard test of acute inflammation.)

The target of assay [5] is T4, inducible NO synthase (iNOS). The assay can be described thus: Activity to inhibit inducible NO synthase (iNOS) derived from rat macrophages; conversion of [3H]-L-arginine to [3H]-L-citrulline. Format: biochemical. More on the design: iNOS was extracted from the macrophages which have been treated with lipopolysaccharide and interferon-γ; endogenous in cells; host or cells: rat peritoneal macrophages treated with lipopolysaccharide and interferon-γ. Here is the method: Activity to inhibit inducible NO synthase (iNOS) derived from rat macrophages
According to partly modified method of Y. Yui et al.(J. Biol. Chem., 266 (19), 12544-12547 (1991)), an iNOS fraction was prepared by applying lipopolysaccharide and interferon-γ to peritoneal macrophages. Thereafter, its enzymatic activity was measured based on the conversion of [³H]-L-arginine to [³H]-L-citrulline, in the same manner as in the case of cNOS.
To the iNOS thus extracted, a 50 mM Tris-HCl buffer solution (pH 7.4) containing 150 µM L-arginine, 5 mM NADPH, 5 mM DTT, 0.5 mM 5,6,7,8-tetrahydro-L-biopterin and 5 µM FAD was added together with a test compound and [³H]-L-arginine. The mixture was incubated for 30 minutes at 37°C. Thereafter, the reaction was terminated by adding a 25 mM sodium acetate buffer solution (pH 5.5) containing 1.25 mM L-citrulline, 2.5 mM EDTA and 0.25 mM EGTA. The reaction solution was passed through a cation-exchange resin. The obtained eluate was combined with the additional eluate obtained thereafter by eluting with water, and the radioactivity of the combined eluate was measured. The inhibition rate of the test compound on iNOS was calculated in the same manner as in Test 1. The concentration (IC₅₀) of the test compound required for inhibiting 50 % of the enzyme activity, were calculated.

Where [6] appears, read: cNOS extracted from rat cerebellum, 10 µM L-arginine, 10 minutes at 25°C, read-out: IC₅₀.
[7] abbreviates: iNOS from peritoneal macrophages treated with lipopolysaccharide and interferon-γ, 150 µM L-arginine, 30 minutes at 37°C, read-out: IC₅₀.

On to “(R)-2-amino-4-benzyl-4,5,6,7-tetrahydro-1,3-thiazepine hydrobromide [Example 15]”, for which, in assay [1] (setting [6]), the IC50 worked out at 600 nM.
For the molecule `Br.CCC[C@@H]1CCSC(N)=N1` [Example 3, (R)-2-amino-5,6-dihydro-4-propyl-4H-1,3-thiazine hydrobromide], the ED₂₅ in assay [2] came to 0.2 mg/kg. Also, the “Inhibitory Effect” value in assay [3] was “○ (10)”. Moreover, the “Suppression Effect” value in assay [4] was “○”. Besides, the ED50 in assay [4] (rat, read-out: Suppression Effect (ED₅₀)) was 9 mg/kg.
For the molecule `Br.COC[C@@H]1CCSC(N)=N1` [Example 30, (S)-2-amino-5,6-dihydro-4-methoxymethyl-4H-1,3-thiazine hydrobromide], the IC50 in assay [1] (setting [6]) worked out at 30 nM; in assay [5] (setting [7]) it was 20 nM. Also, in assay [2], the ED₂₅ was found to be 0.15 mg/kg. For the same molecule, the “Inhibitory Effect” value in assay [3] is recorded as “○ (10)”.
With `CC1CC(OCc2ccccc2)N=C(N)S1` (stereo not drawn) [Example 27, Bis(2-amino-4-benzyloxy-5,6-dihydro-6-methyl-4H-1,3-thiazine), fumarate], the IC50 in assay [1] and in assay [5] was 400 nM throughout.
Turning to `CC(C)[C@@H]1CCSC(N)=N1` [Example 1, (S)-2-amino-5,6-dihydro-4-isopropyl-4H-1,3-thiazine hydrobromide], the IC50 in assay [1] (setting [6]) was determined as 20 nM; in assay [5] (setting [7]), 300 nM.
In the same order, the values of `CC(C)OC1CCSC(N)=N1` (stereo not drawn) [Example 20, 2-amino-5,6-dihydro-4-isopropoxy-4H-1,3-thiazine fumarate] are 30 nM and 30 nM.
Consider `COC1CCSC(N)=N1` (stereo not drawn) [Example 18, Bis(2-amino-5,6-dihydro-4-methoxy-4H-1,3-thiazine) fumarate], for which the IC50 worked out at 20 nM in assay [1] and 10 nM in assay [5].
For `CC1(C)CN=C(N)SC1` [Example 16, 2-amino-5,6-dihydro-5,5-dimethyl-4H-1,3-thiazine hydrobromide], the IC50 in assay [1] (setting [6]) worked out at 200 nM; in assay [5] (setting [7]) it was 500 nM.
As to `NC1=NCCS1` [Comparative Example 1, 2-aminothiazoline, reference compound], the IC50 in assay [5] was determined as 2000 nM.
`CCCC[C@H]1CCSC(N)=N1` [Example 6, (S)-2-amino-4-butyl-5,6-dihydro-4H-1,3-thiazine hydrobromide]: the IC50 in assay [1] (setting [6]) came out at 30 nM; in assay [5] (setting [7]) it was 70 nM.
In the case of `NC1=N[C@@H](Cc2ccccc2)CCS1` [Example 10, (S)-2-amino-4-benzyl-5,6-dihydro-4H-1,3-thiazine hydrobromide], the IC50 in assay [1] turned out to be 30 nM; in assay [5], 600 nM.
As for `CC(C)C[C@H]1CCSC(N)=N1` [Example 8, (S)-2-amino-5,6-dihydro-4-isobutyl-4H-1,3-thiazine hydrobromide], the IC50 in assay [1] (setting [6]) worked out at 80 nM; in assay [5] (setting [7]), 70 nM.
In turn, `NC1=N[C@H](Cc2ccccc2)CCS1` [Example 9, (R)-2-amino-4-benzyl-5,6-dihydro-4H-1,3-thiazine hydrobromide] displayed an IC50 in assay [1] of 200 nM.
On to `CCOC1CC(C)SC(N)=N1` (stereo not drawn) [Example 26, Bis(2-amino-4-ethoxy-5,6-dihydro-6-methyl-4H-1,3-thiazine) fumarate], for which the results for the IC50 in assay [1] and in assay [5] were 80 nM and 90 nM, respectively.
In the same order, the values of `NC1=NC(OCc2ccccc2)CCS1` (stereo not drawn) [Example 22, Bis(2-amino-4-benzyloxy-5,6-dihydro-4H-1,3-thiazine) fumarate] are 100 nM and 600 nM.
For the molecule `CC(C)[C@H]1CCSC(N)=N1` [Example 2, (R)-2-amino-5,6-dihydro-4-isopropyl-4H-1,3-thiazine hydrobromide], in assay [1] (setting [6]), the IC50 worked out at 300 nM.
On to `CC(C)C[C@@H]1CCSC(N)=N1` [Example 7, (R)-2-amino-5,6-dihydro-4-isobutyl-4H-1,3-thiazine hydrobromide], for which the IC50 is 40 nM in assay [1] (setting [6]) and 70 nM in assay [5] (setting [7]).
`CC1CCCSC(N)=N1` (stereo not drawn) [Example 12, Bis(2-amino-4,5,6,7-tetrahydro-4-methyl-1,3-thiazepine) fumarate]: the IC50 in assay [1] turned out to be 100 nM; in assay [5], 70 nM.
Take `CCCOC1CCSC(N)=N1` (stereo not drawn) [Example 19, 2-amino-5,6-dihydro-4-propyloxy-4H-1,3-thiazine hydrochloride]: the IC50 was found to be 40 nM in assay [1] (setting [6]) and 30 nM in assay [5] (setting [7]).
In the same order, the values of `NC1=NC(O)CCS1` (stereo not drawn) [Example 17, 2-amino-5,6-dihydro-4-hydroxyl-4H-1,3-thiazine hydrochloride] are 20 nM and 50 nM.
As to `CC1CN=C(N)SC1` (stereo not drawn) [Example 28, 2-amino-5,6-dihyro-5-methyl-4H-1,3-thiazine hydrobromide], the IC50 in assay [1] was 100 nM; in assay [5], 200 nM.
Regarding `CC1(C)CCN=C(N)S1` [Example 29, 2-amino-5,6-dihydro-6,6-dimethyl-4H-1,3-thiazine hydrochloride], the figures for the IC50 in assay [1] (setting [6]) and in assay [5] (setting [7]) were 100 nM and 200 nM, respectively.
Take `CCC[C@H]1CCSC(N)=N1` [Example 4, (S)-2-amino-5,6-dihydro-4-propyl-4H-1,3-thiazine hydrobromide]: the IC50 in assay [1] (setting [6]) was determined as 30 nM; in assay [5] (setting [7]) it was 20 nM.
As to `CCC[C@@H]1CCCSC(N)=N1` [Example 13, (R)-2-amino-4,5,6,7-tetrahydro-4-propyl-1,3-thiazepine hydrobromide], the IC50 in assay [1] (setting [6]) was found to be 300 nM.
As to `CCCC[C@@H]1CCSC(N)=N1` [Example 5, (R)-2-amino-4-butyl-5,6-dihydro-4H-1,3-thiazine hydrobromide], the IC50 in assay [1] (setting [6]) was determined as 30 nM; in assay [5] (setting [7]), 40 nM.
`NC1=NC(OCCc2ccccc2)CCS1` (stereo not drawn) [Example 25, Bis(2-amino-5,6-dihydro-4-(2-phenyl)ethyloxy-4H-1,3-thiazine) fumarate]: the IC50 in assay [1] stood at 100 nM; in assay [5] it was 300 nM.
